Structures are written as SMILES. pEC50: −log10 of the molar value. In brackets after ≈: the same amount, converted by molar mass. Where two headings read alike, the source gives them in different places. Positions of bridges follow the written chain, without caps; N, C: chain ends. Non-standard residues stand in square brackets, D forms with d. Residues, ends and D or L forms follow the SMILES beside them. Lys(N3) = [N-]=[N+]=NCCCC[C@H](N)C(=O)O; R8 = C=CCCCCCC[C@@](C)(N)C(=O)O; Cba = N[C@@H](CC1CCC1)C(=O)O; S5 = C=CCCC[C@](C)(N)C(=O)O; βAla = NCCC(=O)O Some results are limits rather than exact numbers.

The nature of data set [1]: Lactate dehydrogenase (LDH) release assay. It counts as cell-based. In outline:
(§1)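 Read-out was lactate dehydrogenase release, reflecting loss of membrane integrity, in reporter-engineered HCT116 cells (p53-responsive β-lactamase) seeded at 8000 cells per well. Final DMSO was 0.5%, and reported values are geometric means from three or more biological repeats.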

Data set [2] deals with HCT116 cells. Kind of data set: Lactate dehydrogenase (LDH) release assay. Type of data set: cell-based. In a few lines:
as §1

A short description of data set [3]: Experimental LogD (partition coefficient). As to conditions: not stated, Partition Coeff LogD.
Data set [4] is described as follows: Solubility assay (kinetic solubility, PBS pH 7). It counts as physicochemical. As to conditions: for solubility kinetic: pH 7, aqueous buffer, kinetic from dmso stock, read-out: Solubility. In a few lines: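 Quantitation uses an external standard at 100 µM, prepared from 10 mM stock in acetonitrile:methanol:DMSO (10:80:10). Solubility (µM) = (peak area of sample ÷ peak area of standard) × standard concentration.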

Data set [5] in a line: physchem.
Where [6] appears, read: 0% FBS 4Hr, read-out: LDH: Cytotoxicity assay EC50.

Turning to `CC(=O)N[C@@H](CC(C)C)C(=O)N[C@H](C(=O)N[C@@H](Cc1ccccc1)C(=O)N[C@]1(C)CCCCCCC=CCCC[C@@](C)(C(=O)N[C@@H](Cc2c[nH]cn2)C(=O)N[C@@H](C)C(=O)N[C@@H](C)C(N)=O)NC(=O)[C@H](CC2CCC2)NC(=O)[C@H](CC(C)C)NC(=O)[C@H](CCC(N)=O)NC(=O)[C@H](Cc2c[nH]c3ccccc23)NC(=O)[C@H](Cc2ccc(O)cc2)NC(=O)[C@H](CCC(=O)O)NC1=O)[C@@H](C)O` [MP-201, ATSP-7041 (S12H)] (Ac-LTF[R8]EYWQL[Cba][S5]HAA-NH2; staple 4-11), in data set [1] (setting [6]), the pEC50 (usually the negative decadic logarithm of the EC50, by convention in mol/L) was below 4.30. Also, the “LDH: Cytotoxicity assay % Effect” value in data set [2] (0% FBS 4Hr) was found to be 10.92%; in data set [2] (0% FBS 16Hr), 6.91%. In addition, in data set [3], the logD (as a rule, lipophilicity at a set pH, counting ionised and neutral species) turned out to be 2.64. Also, the solubility kinetic in data set [4] (pH 7, PBS) was found to be 5 µM (≈ 9.19 µg/mL). This compound also yielded an EPSA in data set [5] of 218 A^2.
Consider `CC(=O)N[C@@H](CC(C)C)C(=O)N[C@H](C(=O)N[C@@H](Cc1ccccc1)C(=O)N[C@]1(C)CCCCCCC=CCCC[C@@](C)(C(=O)N[C@@H](CO)C(=O)N[C@@H](C)C(=O)N[C@@H](C)C(N)=O)NC(=O)[C@H](CC2CCC2)NC(=O)[C@H](CC(C)C)NC(=O)[C@H](CCC(N)=O)NC(=O)[C@H](Cc2c[nH]c3ccccc23)NC(=O)[C@H](Cc2ccc(O)cc2)NC(=O)[C@H](CCCNC(=N)N)NC1=O)[C@@H](C)O` [MP-193] (Ac-LTF[R8]RYWQL[Cba][S5]SAA-NH2; staple 4-11), for which the pEC50 in data set [1] (LDH: Cytotoxicity assay EC50) is below 4.30. In addition, the “LDH: Cytotoxicity assay % Effect” value in data set [2] stood at 58.33%. The same compound displayed a logD in data set [3] of 3.26. Further, the solubility kinetic in data set [4] (pH 7, PBS) came to 2 µM (≈ 3.63 µg/mL). The compound further registered an EPSA in data set [5] of 207 A^2.
`CC(=O)N[C@@H](CCCCN=[N+]=[N-])C(=O)NCCC(=O)N[C@@H](CC(C)C)C(=O)N[C@H](C(=O)N[C@@H](Cc1ccccc1)C(=O)N[C@]1(C)CCCCCCC=CCCC[C@@](C)(C(=O)N[C@@H](CO)C(=O)N[C@@H](C)C(=O)N[C@@H](C)C(N)=O)NC(=O)[C@H](CC2CCC2)NC(=O)[C@H](C)NC(=O)[C@H](C)NC(=O)[C@H](Cc2c[nH]c3ccccc23)NC(=O)[C@H](Cc2ccc(O)cc2)NC(=O)[C@H](C)NC1=O)[C@@H](C)O` [MP-964, AZIDE-ATSP-7041 (E5A,Q9A)] (Ac-[Lys(N3)][βAla]LTF[R8]AYWAA[Cba][S5]SAA-NH2; staple 6-13): the pEC50 in data set [1] (setting [6]) is below 4.30; in data set [1] (10% FBS 4Hr, read-out: LDH: Cytotoxicity assay EC50) it was below 4.30. Besides, the “LDH: Cytotoxicity assay % Effect” value in data set [2] (0% FBS 4Hr) amounted to 6.293%; in data set [2] (0% FBS 16Hr), 4.09%; in data set [2] (10% FBS 4Hr) it was 2.881%. The compound also came in with a logD in data set [3] of 3.77. Moreover, the Solubility entry in data set [4] is “P.B”; in data set [4] (pH 7, PBS) it was “Poorly Behaved”. Besides, the EPSA in data set [5] stood at 204 A^2.
Take `CC(=O)N[C@@H](CC(C)C)C(=O)N[C@H](C(=O)N[C@@H](Cc1ccccc1)C(=O)N[C@]1(C)CCCCCCC=CCCC[C@@](C)(C(=O)N[C@@H](CO)C(=O)N[C@@H](C)C(=O)N[C@@H](C)C(N)=O)NC(=O)[C@H](CC2CCC2)NC(=O)[C@H](CC(C)C)NC(=O)[C@H](CCC(N)=O)NC(=O)[C@H](Cc2c[nH]c3ccccc23)NC(=O)[C@H](Cc2ccc(O)cc2)NC(=O)[C@H](Cc2c[nH]cn2)NC1=O)[C@@H](C)O` [MP-199, ATSP-7041 (E5H)] (Ac-LTF[R8]HYWQL[Cba][S5]SAA-NH2; staple 4-11): the pEC50 in data set [1] (setting [6]) is below 4.30. Further, the results for the “LDH: Cytotoxicity assay % Effect” value in data set [2] (0% FBS 4Hr) and in data set [2] (0% FBS 16Hr) were 4.035% and 24.3%, respectively. Also, in data set [3], the logD worked out at 3.25. Besides, in data set [4] (pH 7, PBS), the solubility kinetic turned out to be 5 µM (≈ 8.98 µg/mL). The EPSA in data set [5] worked out at 201 A^2.
For `CC(=O)N[C@@H](CC(C)C)C(=O)N[C@@H](Cc1c[nH]cn1)C(=O)N[C@@H](Cc1ccccc1)C(=O)N[C@]1(C)CCCCCCC=CCCC[C@@](C)(C(=O)N[C@@H](CO)C(=O)N[C@@H](C)C(=O)N[C@@H](C)C(N)=O)NC(=O)[C@H](CC2CCC2)NC(=O)[C@H](CC(C)C)NC(=O)[C@H](CCC(N)=O)NC(=O)[C@H](Cc2c[nH]c3ccccc23)NC(=O)[C@H](Cc2ccc(O)cc2)NC(=O)[C@H](CCC(=O)O)NC1=O` [MP-198, ATSP-7041 (T2H)] (Ac-LHF[R8]EYWQL[Cba][S5]SAA-NH2; staple 4-11), in data set [1] (setting [6]), the pEC50 was below 4.30. Moreover, the “LDH: Cytotoxicity assay % Effect” value was 2.825% in data set [2] (0% FBS 4Hr) and -3.86% in data set [2] (0% FBS 16Hr). Moreover, in data set [3], the pH-dependent lipophilicity (logD) was 2.81. For the same compound, in data set [4] (pH 7, PBS), the solubility kinetic came out at 25 µM (≈ 45.6 µg/mL). The EPSA in data set [5] turned out to be 209 A^2.
Compound `CC(=O)N[C@@H](CC(C)C)C(=O)N[C@H](C(=O)N[C@@H](Cc1ccccc1)C(=O)N[C@]1(C)CCCCCCC=CCCC[C@@](C)(C(=O)N[C@@H](CO)C(=O)N[C@@H](C)C(=O)N[C@@H](C)C(N)=O)NC(=O)[C@H](CC2CCC2)NC(=O)[C@H](CC(C)C)NC(=O)[C@H](CCCNC(=N)N)NC(=O)[C@H](Cc2c[nH]c3ccccc23)NC(=O)[C@H](Cc2ccc(O)cc2)NC(=O)[C@H](CCC(=O)O)NC1=O)[C@@H](C)O` [MP-194] (Ac-LTF[R8]EYWRL[Cba][S5]SAA-NH2; staple 4-11) gave a pEC50 in data set [1] (LDH: Cytotoxicity assay EC50) below 4.30. Besides, the “LDH: Cytotoxicity assay % Effect” value in data set [2] is reported as -1.06%. The same compound yielded a logD in data set [3] of 2.87. The Solubility result in data set [4] (pH 7, PBS) was “Poorly Behaved”. The EPSA in data set [5] was 210 A^2.
Compound `CC(=O)N[C@@H](C)C(=O)N[C@@H](C)C(=O)N[C@@H](Cc1ccccc1)C(=O)N[C@]1(C)CCCCCCC=CCCC[C@@](C)(C(=O)N[C@@H](CO)C(=O)N[C@@H](C)C(=O)N[C@@H](C)C(N)=O)NC(=O)[C@H](CC2CCC2)NC(=O)[C@H](C)NC(=O)[C@H](C)NC(=O)[C@H](Cc2c[nH]c3ccccc23)NC(=O)[C@H](Cc2ccc(O)cc2)NC(=O)[C@H](CCC(=O)O)NC1=O` [MP-1207] (Ac-AAF[R8]EYWAA[Cba][S5]SAA-NH2; staple 4-11) showed a pEC50 in data set [1] (LDH: Cytotoxicity assay EC50) below 4.30. This compound also yielded a logD in data set [3] of 2.91. For the same compound, in data set [4] (pH 7, PBS), the solubility kinetic was determined as 171 µM (≈ 276 µg/mL). The same compound showed an EPSA in data set [5] of 224 A^2.
As to `CC(=O)N[C@@H](CCCCN=[N+]=[N-])C(=O)NCCC(=O)NC(C)(C)C(=O)N[C@H](C(=O)N[C@@H](Cc1ccccc1)C(=O)N[C@]1(C)CCCCCCC=CCCC[C@@](C)(C(=O)N[C@@H](CO)C(=O)N[C@@H](C)C(=O)N[C@@H](C)C(N)=O)NC(=O)[C@H](CC2CCC2)NC(=O)[C@H](CCC(N)=O)NC(=O)[C@H](C)NC(=O)[C@H](Cc2c[nH]c3ccccc23)NC(=O)[C@H](Cc2ccc(O)cc2)NC(=O)[C@H](CCC(=O)O)NC1=O)[C@@H](C)O` [MP-168], the pEC50 in data set [1] (setting [6]) is below 4.30. Besides, the “LDH: Cytotoxicity assay % Effect” value in data set [2] (0% FBS 4Hr) is 4.017%; in data set [2] (0% FBS 16Hr), 11.59%. Further, the logD in data set [3] is 2.81. Further, the solubility kinetic in data set [4] (pH 7, PBS) is 79.5 µM (≈ 154 µg/mL). Further, the EPSA in data set [5] was found to be 228 A^2.
For `CC(=O)N[C@@H](CC(C)C)C(=O)N[C@H](C(=O)N[C@@H](Cc1ccccc1)C(=O)N[C@]1(C)CCCCCCC=CCCC[C@@](C)(C(=O)N[C@@H](CO)C(N)=O)NC(=O)[C@H](CC2CCC2)NC(=O)[C@H](CC(C)C)NC(=O)[C@H](CCC(N)=O)NC(=O)[C@H](Cc2c[nH]c3ccccc23)NC(=O)[C@H](Cc2ccc(O)cc2)NC(=O)[C@H](CCC(=O)O)NC1=O)[C@@H](C)O` [MP-204] (Ac-LTF[R8]EYWQL[Cba][S5]S-NH2; staple 4-11), the negative logarithm of the EC50 (pEC50) in data set [1] (LDH: Cytotoxicity assay EC50) was below 4.30. Further, in data set [3], the logD was 2.81. In addition, the solubility kinetic in data set [4] (pH 7, PBS) came out at 15 µM (≈ 24.7 µg/mL). Further, the EPSA in data set [5] was 216 A^2.

The values are drawn from paper PMC10786919, “Design-rules for stapled peptides with in vivo activity and their application to Mdm2/X antagonists” (Nature Communications, 2024).
